Test results as given in paper PMC10327353 (Breast Cancer Research : BCR, 2023).

Columns and labels:
[1] = target: T1, P-gp (MDR1) (Homo sapiens, UniProt P08183); test: P-gp efflux ratio, bi-directional transport assay; assay type: in vitro ADME
T1 construct: expressed in transfected cells; host or cells: MDCKII-MDR1
Source text: Passive permeability (Papp) characterizes the rate across the cell membrane due to passive diffusion. A high permeability enables the rapid establishment of equilibrium among plasma, CSF, and brain compartments. Except for passive permeability, sufficient unbound drug concentration in the brain is governed by efflux transporters, including P-gp (MDR1, ABCB1) and BCRP, at BBB. Efflux ratio (ER) reflects the liability of a compound to be pumped out of the brain by BBB efflux transporters, which is indicated by the distribution disequilibrium between the plasma and the brain compartments.
[…] The adjusted efflux ratio was used to determine if DZD1516/DZ2678 underwent active efflux. Verapamil, a P-glycoprotein (P-gp) inhibitor, was used to identify if any active transport processes were mediated through P-gp. The apical-to-basolateral (A-B) and basolateral-to-apical (B-A) transport of DZD1516/DZ2678 in HBSS (25 mM HEPES, pH 7.4) with 0.1% BSA was measured across MDCKII-MDR1 cell monolayers in the absence and presence of the P-gp inhibitor, verapamil (100 μM). The apical-to-basolateral (A-B) and basolateral-to-apical (B-A) transport of DZD1516/DZ2678 in HBSS (25 mM HEPES, pH 7.4) with 0.1% BSA was also measured across MDCKII cell monolayers in the absence and presence of the P-gp inhibitor, verapamil. Incubations were performed at approximately 37°C for 120 min, with the functionality of the test system being confirmed using 5 μM digoxin as a positive control substrate. […] determined by quantifying substrate concentration in the incubation medium of the donor compartment at the beginning of the incubation period and both donor and receiver compartments at the end of the incubation period. The data was used to calculate the apparent permeability (Papp). All incubations were performed in triplicate, and the integrity of the cell monolayers was confirmed using the marker Lucifer yellow.

[2] = Phase 1 study: CSF penetration (Kp,uu,CSF); assay type: in vivo, human; conditions: for Kp uu: human, oral
Procedure: Blood samples for PK analyses of DZD1516 and DZ2678 were collected on C0D1. Samples were obtained at pre-dose and at 0.5, 1, 1.5, 2, 2.5, 3, 4, 6, 8, 10, 24, 48, and 72 h after the dose, while for C1D15, samples were obtained at pre-dose and 0.5, 1, 1.5, 2, 2.5, 3, 4, 6, 8, and 10 h after the dose. CSF samples for PK analyses of DZD1516 and its metabolite DZ2678 were collected from patients with BM (C1D15) and LM (C1D15 and C3D1) at steady state (Additional file 1). Plasma and CSF samples were analyzed by LabCorp Madison laboratory (Madison, WI, USA) and LabCorp Shanghai laboratory (Shanghai, China) using a validated LC/MS/MS bioanalytical method to determine DZD1516 and DZ2678 concentrations. Non-compartmental PK analysis was performed using Phoenix WinNonlin (Certara USA Inc., version 8.3.3.33).

[3] = target: potassium ion-channel hERG (Homo sapiens, UniProt Q12809); test: hERG in vitro safety pharmacology; assay type: biochemical
[4] = In vivo CNS-PK study in rat; conditions: female, Wistar Han, brain and CSF (relative to unbound plasma/blood), single PO dose of DZD1516 30 mg/kg
Procedure: The ability of DZD1516 and DZ2678 to cross the BBB in female Wistar Han rat and female Cynomolgus monkey was studied by assessing the free brain-to-plasma ratio (Kp,uu,brain) and CSF-to-free plasma ratio (Kp,uu,CSF). Total brain-to-blood ratio (Kp,brain) and CSF-to-blood ratio (Kp,CSF) were measured from six time points after oral administration. Free fractions of DZD1516 and DZ2678 in the biological matrix were determined by in vitro plasma and brain binding assay.
Kp,brain= AUCbrain/AUCblood. Kp,CSF was the average of the CSF-to-blood ratios at the evaluated time points. Kp,uu,brain= Kp,brain× fu,brain/fu,blood; Kpuu,CSF= Kp,CSF/fu,blood.
In total, twenty-one female Wistar Han rats were administered with a single PO dose of DZD1516 at 30 mg/kg. The PO dosing formulation was a suspension in 0.5% HPMC E5 in water (w/v). Plasma, brain, and CSF samples were collected at 0.5, 1, 2, 4, 8, 24, and 30 hrs post-dose. The concentrations of DZD1516 and metabolite DZ2678 in plasma, brain, and CSF samples from the rats, as well as in plasma and CSF samples from the monkeys, were determined by the validated LC-MS/MS method.

[5] = target: HER2 (Homo sapiens, UniProt P04626); test: In vitro HER2 enzymatic assay (Lance Ultra Kinase Assay); assay type: biochemical; design: purchased Thermo Fisher PR4918A; conditions: recombinant HER2, 2 mM ATP; read-out: IC50 against HER2 in the enzymatic assay
Procedure: Recombinant HER2 was purchased from Thermo Fisher (Cat. # PR4918A). The inhibition potency of compounds against HER2 enzyme was assessed using Lance Ultra Kinase Assay.
In brief, recombinant kinases were pre-incubated in the presence or absence of the compound at room temperature for 30 minutes. The reaction was initiated by the addition of the ATP and substrate peptide. After 60 minutes of incubation, the reaction was stopped by the addition of the detection reagent mix containing EDTA. The fluorescence was measured at 615 nm and 665 nm, respectively, with excitation wavelength at 320 nm. The calculated signal ratio of 665 nm/615 nm is proportional to the kinase activity.

T1 sequence (P08183 whole entry): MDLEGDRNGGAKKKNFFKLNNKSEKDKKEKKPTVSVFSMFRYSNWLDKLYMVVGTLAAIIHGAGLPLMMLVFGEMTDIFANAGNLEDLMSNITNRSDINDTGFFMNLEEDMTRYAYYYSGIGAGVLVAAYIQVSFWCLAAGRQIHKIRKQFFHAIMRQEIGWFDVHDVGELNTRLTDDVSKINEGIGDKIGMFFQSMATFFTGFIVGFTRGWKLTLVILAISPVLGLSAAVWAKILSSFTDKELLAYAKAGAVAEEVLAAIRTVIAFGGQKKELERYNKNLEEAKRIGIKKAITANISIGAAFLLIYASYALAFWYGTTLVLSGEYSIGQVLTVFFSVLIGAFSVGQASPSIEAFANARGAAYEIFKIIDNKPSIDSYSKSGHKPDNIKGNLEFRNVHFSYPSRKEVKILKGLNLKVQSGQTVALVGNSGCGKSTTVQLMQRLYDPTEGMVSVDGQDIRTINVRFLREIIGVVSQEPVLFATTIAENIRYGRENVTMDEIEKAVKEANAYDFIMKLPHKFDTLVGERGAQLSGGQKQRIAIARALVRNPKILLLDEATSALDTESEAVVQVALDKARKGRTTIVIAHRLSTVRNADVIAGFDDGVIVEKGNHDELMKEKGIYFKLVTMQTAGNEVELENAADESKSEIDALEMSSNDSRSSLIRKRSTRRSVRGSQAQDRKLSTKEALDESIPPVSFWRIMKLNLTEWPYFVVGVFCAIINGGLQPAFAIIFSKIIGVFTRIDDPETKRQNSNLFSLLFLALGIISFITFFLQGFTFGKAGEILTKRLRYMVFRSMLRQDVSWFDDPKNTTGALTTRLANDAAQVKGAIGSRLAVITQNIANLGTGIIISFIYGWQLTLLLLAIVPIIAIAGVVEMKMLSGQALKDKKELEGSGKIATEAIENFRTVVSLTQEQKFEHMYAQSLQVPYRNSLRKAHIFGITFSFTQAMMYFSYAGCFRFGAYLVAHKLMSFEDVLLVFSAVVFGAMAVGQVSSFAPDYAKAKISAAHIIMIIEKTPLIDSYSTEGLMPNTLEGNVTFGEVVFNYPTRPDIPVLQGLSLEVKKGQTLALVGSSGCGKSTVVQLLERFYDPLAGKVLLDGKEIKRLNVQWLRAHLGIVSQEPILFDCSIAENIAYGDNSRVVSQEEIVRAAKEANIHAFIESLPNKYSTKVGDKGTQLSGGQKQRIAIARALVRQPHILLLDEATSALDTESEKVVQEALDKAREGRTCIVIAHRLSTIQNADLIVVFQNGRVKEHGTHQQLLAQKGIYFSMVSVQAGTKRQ
Chain of potassium ion-channel hERG (Q12809 whole entry): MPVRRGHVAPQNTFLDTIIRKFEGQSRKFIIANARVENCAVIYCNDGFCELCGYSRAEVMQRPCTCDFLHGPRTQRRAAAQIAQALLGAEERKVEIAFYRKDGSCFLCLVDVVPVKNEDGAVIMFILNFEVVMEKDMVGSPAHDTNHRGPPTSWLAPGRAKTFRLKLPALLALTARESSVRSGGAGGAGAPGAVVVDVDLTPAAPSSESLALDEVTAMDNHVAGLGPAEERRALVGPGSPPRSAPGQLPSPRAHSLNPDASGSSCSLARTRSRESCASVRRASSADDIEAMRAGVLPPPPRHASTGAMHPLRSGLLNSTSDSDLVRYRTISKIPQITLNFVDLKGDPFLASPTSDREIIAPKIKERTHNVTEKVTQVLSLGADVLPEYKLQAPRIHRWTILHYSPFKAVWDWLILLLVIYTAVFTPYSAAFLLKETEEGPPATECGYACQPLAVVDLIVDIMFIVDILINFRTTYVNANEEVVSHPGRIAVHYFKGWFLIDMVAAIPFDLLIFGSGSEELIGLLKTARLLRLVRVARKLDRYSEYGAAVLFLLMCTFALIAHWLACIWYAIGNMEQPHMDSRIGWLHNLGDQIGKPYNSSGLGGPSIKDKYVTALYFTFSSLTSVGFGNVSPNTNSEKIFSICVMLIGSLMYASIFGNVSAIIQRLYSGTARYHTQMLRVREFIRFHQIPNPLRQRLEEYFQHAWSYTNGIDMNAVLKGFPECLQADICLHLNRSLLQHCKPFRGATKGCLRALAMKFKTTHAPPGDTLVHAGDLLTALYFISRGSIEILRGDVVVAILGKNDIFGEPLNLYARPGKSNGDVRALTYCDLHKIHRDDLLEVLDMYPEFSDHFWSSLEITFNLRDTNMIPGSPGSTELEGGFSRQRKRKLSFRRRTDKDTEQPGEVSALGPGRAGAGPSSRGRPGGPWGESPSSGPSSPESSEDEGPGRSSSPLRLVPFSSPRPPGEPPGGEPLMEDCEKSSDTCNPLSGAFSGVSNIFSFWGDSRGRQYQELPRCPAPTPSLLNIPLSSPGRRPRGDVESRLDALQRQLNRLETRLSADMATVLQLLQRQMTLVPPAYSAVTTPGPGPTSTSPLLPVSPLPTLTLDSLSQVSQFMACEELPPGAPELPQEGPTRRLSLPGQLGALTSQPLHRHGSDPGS
Chain of HER2 (P04626 23-1255): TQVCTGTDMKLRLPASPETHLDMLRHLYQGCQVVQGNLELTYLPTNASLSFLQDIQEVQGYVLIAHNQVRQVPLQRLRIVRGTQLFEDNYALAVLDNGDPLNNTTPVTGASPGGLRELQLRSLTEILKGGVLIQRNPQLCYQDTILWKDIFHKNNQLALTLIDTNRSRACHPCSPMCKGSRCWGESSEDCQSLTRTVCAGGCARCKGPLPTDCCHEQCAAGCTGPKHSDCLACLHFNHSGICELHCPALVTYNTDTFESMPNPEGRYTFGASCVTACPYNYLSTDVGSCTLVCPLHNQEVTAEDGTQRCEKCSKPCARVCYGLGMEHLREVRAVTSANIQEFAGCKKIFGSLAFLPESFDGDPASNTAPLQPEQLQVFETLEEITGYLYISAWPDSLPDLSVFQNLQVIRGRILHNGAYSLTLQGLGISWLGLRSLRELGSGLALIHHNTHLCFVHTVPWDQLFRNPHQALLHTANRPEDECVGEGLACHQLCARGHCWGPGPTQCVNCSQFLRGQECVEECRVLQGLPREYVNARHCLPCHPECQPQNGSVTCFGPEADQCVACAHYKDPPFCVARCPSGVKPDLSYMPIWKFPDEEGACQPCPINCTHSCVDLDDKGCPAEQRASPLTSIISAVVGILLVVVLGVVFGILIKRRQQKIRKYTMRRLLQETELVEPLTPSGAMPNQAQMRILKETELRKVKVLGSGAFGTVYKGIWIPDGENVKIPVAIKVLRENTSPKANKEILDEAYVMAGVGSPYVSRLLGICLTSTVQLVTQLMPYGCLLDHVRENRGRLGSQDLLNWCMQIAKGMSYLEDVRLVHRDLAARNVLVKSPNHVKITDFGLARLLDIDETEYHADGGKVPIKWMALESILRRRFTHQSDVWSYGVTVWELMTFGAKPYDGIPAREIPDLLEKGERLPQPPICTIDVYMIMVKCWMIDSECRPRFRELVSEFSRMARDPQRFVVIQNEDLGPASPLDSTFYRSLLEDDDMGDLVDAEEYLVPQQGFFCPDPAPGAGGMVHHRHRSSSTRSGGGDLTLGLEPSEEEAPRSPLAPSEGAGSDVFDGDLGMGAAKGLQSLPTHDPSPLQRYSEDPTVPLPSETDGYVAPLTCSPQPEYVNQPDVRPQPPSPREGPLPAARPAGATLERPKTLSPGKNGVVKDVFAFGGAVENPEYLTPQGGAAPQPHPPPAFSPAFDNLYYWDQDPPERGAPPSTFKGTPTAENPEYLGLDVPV

## COc1cc(O[C@H]2CCN(C)CC2(F)F)c2c(Nc3ccc(Oc4ccn5ncnc5c4)c(C)c3)ncnc2c1 [DZD1516]
[1]; human, MDCK-MDR1, pH 7.4
  efflux ratio at 120 min, 1 µM: < 2
[1]; listed as Cpd-5
  Efflux ratio P-gp @1 µM: 1.6
[2]; 50 mg, subject 1
  CSF conc: 4.89 nmol/L
  Free plasma conc: 5.35 nM
[2]; 50 mg, subject 2
  CSF conc: 10.2 nmol/L
  Free plasma conc: 6.28 nM
[2]; 100 mg, subject 3
  CSF conc: 39.3 nmol/L
  Free plasma conc: 13.4 nM
[2]; 100 mg, subject 4
  CSF conc: 15.5 nmol/L
  Free plasma conc: 4.95 nM
[2]; 100 mg, subject 5
  CSF conc: 12.7 nmol/L
  Free plasma conc: 4.84 nM
[2]; 200 mg, subject 6
  CSF conc: 18.3 nmol/L
  Free plasma conc: 13.9 nM
[2]; 250 mg, subject 7
  CSF conc: 27.9 nmol/L
  Free plasma conc: 24.0 nM
[2]; 250 mg, subject 8
  CSF conc: 54.2 nmol/L
  Free plasma conc: 17.4 nM
[2]; CSF (relative to unbound plasma), patients with CNS metastases, read-out: mean Kp,uu,CSF
  Kp uu: 2.1
[2]; CSF / free plasma, 100 mg, subject 4, read-out: Kp,uu,CSF
  Kp uu: 3.13
[2]; CSF / free plasma, 100 mg, subject 5, read-out: Kp,uu,CSF
  Kp uu: 2.63
[2]; CSF / free plasma, 200 mg, subject 6, read-out: Kp,uu,CSF
  Kp uu: 1.31
[2]; CSF / free plasma, 250 mg, subject 7, read-out: Kp,uu,CSF
  Kp uu: 1.16
[2]; CSF to free plasma, 50 mg, subject 1, read-out: Kp,uu,CSF
  Kp uu: 0.915
[2]; CSF to free plasma, 50 mg, subject 2, read-out: Kp,uu,CSF
  Kp uu: 1.62
[2]; CSF to free plasma, 100 mg, subject 3, read-out: Kp,uu,CSF
  Kp uu: 2.94
[2]; CSF to free plasma, 250 mg, subject 8, read-out: Kp,uu,CSF
  Kp uu: 3.13
[3]
  IC50: 3290 nM
[4]
  Kp uu: 0.57 to 0.87
[5]
  IC50: 0.56 nM
